Laboratory results: patent publication US10053422B2, “Compounds for the treatment of mTOR pathway related diseases” (Pitney Pharmaceuticals Pty Limited, priority 2012, dated 2018)
“Also recorded” adds a separate entry of the source. Read-outs that look alike come from different tables or passages of the source.

Experiments:
OVCAR-3 or A2780 cells [1] = assay: Cellular ATP and ADP/ATP ratio; assay type: cell-based, human
Procedure: ADP and ATP levels in the media were measured using the commercial colorimetric/fluorometric assay kits from Abcam together with the ApoGlow assay kit from Lonza (Sydney, Australia subsidary). Each value represents mean+s.e.m. of at least two determinations.

[2] = tested on: A2780 ovarian cancer cells; assay: Autophagy (vacuole formation), A2780; assay type: cell-based, human
From the text: (§1) Autophagy is a characteristic of mTOR inhibition.

YOU cells (mesothelioma) = assay: SRB cell proliferation assay, YOU; assay type: cell-based; conditions: for IC50: YOU
Procedure: (§2) Cell proliferation was assessed using the sulforhodamine B (SRB) assay. Cells seeded in 96-well plate (2,000-3,000 cell/well) were treated with MPL (0, 1, 5, 10, 25, 50 and 100 μmol/L) for 72 h. Cells were then fixed, washed and stained with 100 μl of 0.4% (w/v) SRB dissolved in 1% acetic acid. Unbound dye was removed by five washes with 1% acetic acid before air drying. Bound SRB was solubilized with 100 μl of 10 mM Tris base (pH 10.5) and the absorbance read at 570 nm. Exactly the same procedure was used to assess MPL-SO2. Both agents were dissolved in ethanol and diluted with media to give the final concentrations required for cell culture assays.

[3] = tested on: mTOR signaling in s.c. grown OVCAR-3 tumors; assay: Western blot of tumor lysates, mTOR related signaling; assay type: in vivo, female nude mice
Procedure: Western blot analysis of tumor lysates prepared from s.c. grown OVCAR-3 tumors in female nude mice. Mice were treated from day 8 post cell inoculation i.p. for 3 weeks with MPL (25, 50 mg/kg suspended in 0.5% HPMC given i.p.) or the vehicle (0.5% HPMC). 24 hours after the last dose, tumors were excised and frozen at −80° C. […] Protein expression of mTOR together with c-Myc, cyclins D1 and E2 and CDKs 2 and 4 were suppressed in tumors excised from MPL treated mice.
Female nude mice (6 weeks old) were purchased from Biological Resources (Faculty of Medicine, University of New South Wales). An institutional animal ethics approval covered all procedures carried out on mice. Briefly, 2.5×10^6 log-phase growing OVCAR-3 cells were injected s.c. into the left flank of each mouse. Animals were weighed once weekly while their tumor volumes were determined twice weekly. Tumor growth was monitored by caliper measurements of orthogonal diameters, and the estimated tumor volume was calculated based on the formula ½ (Length×Width^2), where width is the shorter of the two orthogonal measurements. Based on institutional ethics approval, mice were euthanized before the tumor volume reached 500 mm^3. Treatment was initiated on day 8 after tumor cell injection when mice were randomized and assigned to treatment or the control group (6 per group). […]

OVCAR-3 or A2780 cells [4] = assay: Colony formation assay; assay type: cell-based, human
Procedure: FIG. 2A, FIG. 2B, and FIG. 2C show the effect of MPL on the colony formation activity of OVCAR-3 cells. Following incubation of cells with MPL (0, 5, 10 and 25 μmol/L) for 72 hours, cells were washed, transferred to agar plates, cultured with their regular growth medium and incubated under standard conditions for 2 weeks. Cells were then fixed with 100% methanol and stained with 1% crystal violet. Colonies (a cluster of cells greater than 50) were counted under a microscope (magnification ×5). The number of colonies counted for different experimental groups is expressed as a percentage of the control.
Following incubation of cells with MPL (0, 5, 10, 25 μM) for 72 h, cells were washed and then transferred to agar plates, cultured with their regular growth medium and incubated under standard conditions for 2 weeks. Cells were then fixed with 100% methanol and stained with 1% crystal violet. Colonies (cluster of cells greater than 50) were counted under microscope (magnification ×5). Number of colonies counted for different experimental groups is expressed as % of control.
For colony formation assay, […], such as OVCAR-3 or A2780 cells, were plated in 100 mm Petri dishes and allowed to attach overnight. […] Colonies consisting of more than 50 cells were counted under an inverted microscope. […]

[5] = tested on: CHO (Chinese hamster ovarian cells); assay: SRB cell proliferation assay, CHO; assay type: cell-based; conditions: Cricetulus griseus; CHO = Chinese hamster ovarian cells (Table 3); read-out: IC50 μM CHO
Procedure: as §2

IGROV-1 cells = assay: SRB cell proliferation assay, IGROV-1; assay type: cell-based; conditions: Homo sapiens
Procedure: as §2

U251 glioma cells = assay: Autophagy (vacuoles), U251; assay type: cell-based
From the text: (§3) Concentration-dependent conversion of LC3-I to LC3-II confirms the increasing phenomenon of autophagy in these cells.

mTOR and p70S6K = assay: Western blot of mTOR and p70S6K phosphorylation in OVCAR-3 cells; assay type: cell-based, human; conditions: 10 μM MPL for 1, 4 or 24 hours
Procedure: Western blot analysis of cell lysates prepared from OVCAR-3 cells treated with 10 μM MPL for 1, 4 or 24 hours under cell culture conditions.

U87 glioma cells = assay: Autophagy (vacuoles, LC3-II), U87; assay type: cell-based; conditions: chemo-resistant U87 glioma cells, concentration-dependent
From the text: as §1, §3

Q: How did the “cellular ATP levels” value (OVCAR-3 or A2780 cells [1]) turn out when `C[C@](C#N)(COc1cc(C#N)ccc1C(F)(F)F)NC(=O)c1ccc(SC(F)(F)F)cc1` [MPL, N-[(1S)-1-Cyano-2-(5-cyano-2-trifluoromethyl-phenoxy)-1-methyl-ethyl]-4-trifluoromethylsulfanyl-benzamide] was run?
A: reduction in ATP levels

Q: And the “formation of vacuoles (autophagy)” value [2]?
A: formation of vacuoles

Q: What about the IC50 (YOU cells (mesothelioma); mesothelioma (Table 2), read-out: IC50 in suppressing proliferation) of the same compound?
A: 23 µM

Q: What about the IC50 (YOU cells (mesothelioma); mesothelioma, 72 h, SRB assay (Table 1), read-out: IC50) of the same compound?
A: 23.1 µM

Q: And the “replication of YOU cells” value (YOU cells (mesothelioma); highly resistant to chemotherapy)?
A: profoundly suppressed

Q: And the “tumor mTOR signaling (Western blot)” value ([3]; 25, 50 mg/kg i.p. for 3 weeks, tumors excised 24 hours after last dose)?
A: suppression of mTOR signaling

Q: What about the “tumor expression of cyclin D1” value ([3]; MPL treated tumor bearing mice) of the same compound?
A: dramatic down-regulation of cyclin D1

Q: And the colony formation (OVCAR-3 or A2780 cells [4]; 72 h exposure (0, 5, 10, 25 μM), then 2 weeks drug free)?
A: profoundly hinders colony formation; also recorded: concentration-dependent inhibition of colony formation

Q: What about the “clonogenic ability at higher concentrations” value (OVCAR-3 or A2780 cells [4]; higher concentrations of MPL, 72 h exposure) of the same compound?
A: almost complete loss of clonogenic ability

Q: What about the IC50 [5] of the same compound?
A: 34.6 µM

Q: What about the IC50 (IGROV-1 cells; IGROV-1, ovarian cancer (Table 2), read-out: IC50 in suppressing proliferation) of the same compound?
A: 4.4 ± 0.27 µM

Q: What about the IC50 (IGROV-1 cells; IGROV-1, ovarian cancer, 72 h, SRB assay (Table 1), read-out: IC50) of the same compound?
A: 6.1 µM

Q: And the “formation of autophagy (vacuoles)” value (U251 glioma cells)?
A: concentration-dependent formation of autophagy

Q: What about the “phosphorylation [activation] of mTOR and p70S6K” value (mTOR and p70S6K) of the same compound?
A: inhibition of phosphorylation

Q: And the “expression of LC3-II (autophagy)” value (U87 glioma cells)?
A: increased expression of LC3-II
